Tests used:
[1] = molecular target: T1, GST-LXRα-LBD (human LXR alpha, aa 164 to 447) (Homo sapiens, UniProt Q13133); assay: Radioligand binding assay (SPA), LXR alpha; conditions: GST-LXRα-LBD on SPA beads, read-out: LXRalpha Binding IC50
T1 construct: human LXR alpha (aa 164 to 447); made in house; host or cells: E. coli BL21(pLysS)
T1 sequence (Q13133 164-447): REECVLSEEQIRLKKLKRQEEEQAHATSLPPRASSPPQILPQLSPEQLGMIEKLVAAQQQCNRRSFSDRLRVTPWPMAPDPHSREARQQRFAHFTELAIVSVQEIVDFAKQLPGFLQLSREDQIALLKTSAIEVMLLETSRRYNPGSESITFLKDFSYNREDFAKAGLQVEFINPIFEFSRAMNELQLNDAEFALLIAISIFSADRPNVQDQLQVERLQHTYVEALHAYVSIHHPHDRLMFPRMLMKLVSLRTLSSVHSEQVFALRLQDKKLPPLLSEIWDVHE
Description: (§1) Mammalian expression vectors were constructed to express full-length human LXR alpha and LXR beta. Bacterial expression vectors were constructed to produce glutathione-s-transferase (GST) fused to the ligand binding domains (LBD) of human LXR alpha (aa 164 to 447) and human LXR beta (aa 155 to 460). To accomplish this, the portions of the sequences encoding the LBDs were amplified from full-length clones by PCR and then subcloned into the plasmid vectors. Final clones were verified by DNA sequence analysis (Willy et al., Genes Dev. 1995, 9:1033-45; Song et al., Proc Natl Acad Sci USA. 1994, 91:10809-13).
(§2) Induction, expression, and purification of GST-LBD fusion proteins were performed in E. coli strain BL21(pLysS) cells by standard methods (Ref: Current Protocols in Molecular Biology, Wiley Press, edited by Ausubel et al).
(§3) LXR alpha and LXR beta receptor binding were assayed in buffer consisting of 50 mM HEPES, pH 7.4, 10 mM NaCl, 5 mM MgCl2. For each 96-well reaction, 500 ng of GST-LXRα-LBD or 700 ng of GST-LXR beta-LBD fusion proteins were bound to 80 μg or 40 μg SPA beads (Pharmacia Amersham) respectively, in a final volume of 50 μl by shaking. […] All binding assays were performed in 96-well plates and the amount of bound ligand was measured on a Packard TopCount using OptiPlates (Packard). Dose response curves were measured within a range of concentration from 10^−10 M to 10^−4 M.

[2] = molecular target: T2, GST-LXR beta-LBD (human LXR beta, aa 155 to 460) (Homo sapiens, UniProt P55055); assay: Radioligand binding assay (SPA), LXR beta; conditions: GST-LXR beta-LBD on SPA beads, read-out: LXRbeta Binding IC50
T2 construct: human LXR beta (aa 155 to 460); made in house; host or cells: E. coli BL21(pLysS)
T2 sequence (P55055 155-460): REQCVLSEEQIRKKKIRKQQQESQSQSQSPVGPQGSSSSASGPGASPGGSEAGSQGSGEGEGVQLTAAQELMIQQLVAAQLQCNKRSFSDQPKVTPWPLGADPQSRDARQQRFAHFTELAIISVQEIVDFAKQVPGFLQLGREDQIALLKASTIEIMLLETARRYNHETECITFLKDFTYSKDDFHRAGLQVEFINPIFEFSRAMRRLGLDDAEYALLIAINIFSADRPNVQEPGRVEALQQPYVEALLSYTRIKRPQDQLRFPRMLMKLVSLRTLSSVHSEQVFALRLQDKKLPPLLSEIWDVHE
Description: as §1, §2, §3

IC50 [1] [nM] | IC50 [2] [nM] | SMILES
20 | 70 | O=S(=O)(c1ccccc1)N(CC(F)(F)F)[C@H]1CC[C@H](C(O)(C(F)(F)F)C(F)(F)F)CC1 [Example 1, trans N-(2,2,2-trifluoro-ethyl)-N-[4-(2,2,2-trifluoro-1-hydroxy-1-trifluoromethyl-ethyl)-cyclohexyl]-benzenesulfonamide]
1500 | 1400 | Cc1nn(C)c(Cl)c1S(=O)(=O)N(CC(F)(F)F)[C@H]1CC[C@H](C(O)(C(F)(F)F)C(F)(F)F)CC1 [Example 17]

From US7253282B2 (Hoffman-La Roche Inc., priority 2004, dated 2007)
